Assay results taken from patent publication US10501489B2, “C17-alkanediyl and alkenediyl derivatives of oleanolic acid and methods of use thereof” (REATA PHARMACEUTICALS, INC., priority 2012, dated 2019).

Test system: RAW264.7 mouse macrophages
Assay: Suppression of IFNγ-induced NO production (nitric oxide production and cell viability assay)
Assay type: cell-based
Conditions: RAW264.7 cells, drug pre-treatment 2 hours, then recombinant mouse IFNγ 24 hours; Griess reagent; normalized to cell viability (WST-1)
Experimental: Assay results for the suppression of IFNγ-induced NO production are shown for several of the compounds of the present invention in Table 1 below. […] Details regarding this assay are provided in the Examples section below. Nitric Oxide Production and Cell Viability Assay. […] On the next day, cells were pre-treated with DMSO or drug (O-200 nM dose range) for 2 hours, and then treated with recombinant mouse IFNγ (R&D Systems) for 24 hours. Nitric Oxide concentration in media was determined using the Griess reagent system (Promega). Cell viability was determined using WST-1 reagent (Roche). IC50 values were determined based on the suppression of IFNγ induced Nitric Oxide production normalized to cell viability.

SMILES	IC50 [nM]
CC[C@]12CCC(C)(C)C[C@H]1[C@H]1C(=O)C=C3[C@@]4(C)C=C(C#N)C(=O)C(C)(C)[C@@H]4CC[C@@]3(C)[C@]1(C)CC2 [TX63403]	8.6
CC1(C)CC[C@]2(CCO)CC[C@]3(C)[C@H](C(=O)C=C4[C@@]5(C)C=C(C#N)C(=O)C(C)(C)[C@@H]5CC[C@]43C)[C@@H]2C1 [TX63608]	1.1
COCC[C@]12CCC(C)(C)C[C@H]1[C@H]1C(=O)C=C3[C@@]4(C)C=C(C#N)C(=O)C(C)(C)[C@@H]4CC[C@@]3(C)[C@]1(C)CC2 [TX63609]	2.9
CC(=O)OCC[C@]12CCC(C)(C)C[C@H]1[C@H]1C(=O)C=C3[C@@]4(C)C=C(C#N)C(=O)C(C)(C)[C@@H]4CC[C@@]3(C)[C@]1(C)CC2 [TX63610]	2.2
COC(=O)CC[C@]12CCC(C)(C)C[C@H]1[C@H]1C(=O)C=C3[C@@]4(C)C=C(C#N)C(=O)C(C)(C)[C@@H]4CC[C@@]3(C)[C@]1(C)CC2 [TX63742]	2
COC(=O)/C=C/[C@]12CCC(C)(C)C[C@H]1[C@H]1C(=O)C=C3[C@@]4(C)C=C(C#N)C(=O)C(C)(C)[C@@H]4CC[C@@]3(C)[C@]1(C)CC2 [TX63743]	3.2
CC1(C)CC[C@]2(CCCO)CC[C@]3(C)[C@H](C(=O)C=C4[C@@]5(C)C=C(C#N)C(=O)C(C)(C)[C@@H]5CC[C@]43C)[C@@H]2C1 [TX63744]	1.1
CC1(C)CC[C@]2(CCC(=O)O)CC[C@]3(C)[C@H](C(=O)C=C4[C@@]5(C)C=C(C#N)C(=O)C(C)(C)[C@@H]5CC[C@]43C)[C@@H]2C1 [TX63762]	1.2
CC1(C)CC[C@]2(CCC(=O)N3CCOCC3)CC[C@]3(C)[C@H](C(=O)C=C4[C@@]5(C)C=C(C#N)C(=O)C(C)(C)[C@@H]5CC[C@]43C)[C@@H]2C1 [TX63763]	0.4
CC1(C)CC[C@]2(CCC(=O)NCC(F)(F)F)CC[C@]3(C)[C@H](C(=O)C=C4[C@@]5(C)C=C(C#N)C(=O)C(C)(C)[C@@H]5CC[C@]43C)[C@@H]2C1 [TX63764]	0.7
CCNC(=O)CC[C@]12CCC(C)(C)C[C@H]1[C@H]1C(=O)C=C3[C@@]4(C)C=C(C#N)C(=O)C(C)(C)[C@@H]4CC[C@@]3(C)[C@]1(C)CC2 [TX63768]	0.3
CNC(=O)CC[C@]12CCC(C)(C)C[C@H]1[C@H]1C(=O)C=C3[C@@]4(C)C=C(C#N)C(=O)C(C)(C)[C@@H]4CC[C@@]3(C)[C@]1(C)CC2 [TX63770]	0.2
CC1(C)CC[C@]2(COC(=O)n3ccnc3)CC[C@]3(C)[C@H](C(=O)C=C4[C@@]5(C)C=C(C#N)C(=O)C(C)(C)[C@@H]5CC[C@]43C)[C@@H]2C1 [TX63868]	0.7
CC1(C)CC[C@]2(COC(=O)N3CCOCC3)CC[C@]3(C)[C@H](C(=O)C=C4[C@@]5(C)C=C(C#N)C(=O)C(C)(C)[C@@H]5CC[C@]43C)[C@@H]2C1 [TX63926]	0.7
CC1(C)CC[C@]2(COC(=O)N3CCCC3)CC[C@]3(C)[C@H](C(=O)C=C4[C@@]5(C)C=C(C#N)C(=O)C(C)(C)[C@@H]5CC[C@]43C)[C@@H]2C1 [TX63927]	1.3
CCNC(=O)OC[C@]12CCC(C)(C)C[C@H]1[C@H]1C(=O)C=C3[C@@]4(C)C=C(C#N)C(=O)C(C)(C)[C@@H]4CC[C@@]3(C)[C@]1(C)CC2 [TX63930]	0.9
CC1(C)CC[C@]2(CCC(=O)N3CCCC3)CC[C@]3(C)[C@H](C(=O)C=C4[C@@]5(C)C=C(C#N)C(=O)C(C)(C)[C@@H]5CC[C@]43C)[C@@H]2C1 [TX63949]	0.6
CC1(C)CC[C@]2(CCC(=O)N3CCC3)CC[C@]3(C)[C@H](C(=O)C=C4[C@@]5(C)C=C(C#N)C(=O)C(C)(C)[C@@H]5CC[C@]43C)[C@@H]2C1 [TX63950]	0.4
CCNC(=O)OCC[C@]12CCC(C)(C)C[C@H]1[C@H]1C(=O)C=C3[C@@]4(C)C=C(C#N)C(=O)C(C)(C)[C@@H]4CC[C@@]3(C)[C@]1(C)CC2 [TX63981]	3
CCNC(=O)OCCC[C@]12CCC(C)(C)C[C@H]1[C@H]1C(=O)C=C3[C@@]4(C)C=C(C#N)C(=O)C(C)(C)[C@@H]4CC[C@@]3(C)[C@]1(C)CC2 [TX63983]	5.4
CCOC(=O)CC[C@]12CCC(C)(C)C[C@H]1[C@H]1C(=O)C=C3[C@@]4(C)C=C(C#N)C(=O)C(C)(C)[C@@H]4CC[C@@]3(C)[C@]1(C)CC2 [TX64042]	10
CC(C)OC(=O)CC[C@]12CCC(C)(C)C[C@H]1[C@H]1C(=O)C=C3[C@@]4(C)C=C(C#N)C(=O)C(C)(C)[C@@H]4CC[C@@]3(C)[C@]1(C)CC2 [TX64043]	21
CC1(C)CC[C@]2(CCC(=O)NC3COC3)CC[C@]3(C)[C@H](C(=O)C=C4[C@@]5(C)C=C(C#N)C(=O)C(C)(C)[C@@H]5CC[C@]43C)[C@@H]2C1 [TX64044]	1.3

SMILES	IC50 [nM]
CC(=O)NNC(=O)CC[C@]12CCC(C)(C)C[C@H]1[C@H]1C(=O)C=C3[C@@]4(C)C=C(C#N)C(=O)C(C)(C)[C@@H]4CC[C@@]3(C)[C@]1(C)CC2 [TX64045]	5.6
CC1(C)CC[C@]2(CCC(=O)Oc3ccccc3)CC[C@]3(C)[C@H](C(=O)C=C4[C@@]5(C)C=C(C#N)C(=O)C(C)(C)[C@@H]5CC[C@]43C)[C@@H]2C1 [TX64046]	8.5
CC1(C)CC[C@]2(CCC(=O)N3CC[C@H](O)C3)CC[C@]3(C)[C@H](C(=O)C=C4[C@@]5(C)C=C(C#N)C(=O)C(C)(C)[C@@H]5CC[C@]43C)[C@@H]2C1 [TX64047]	3.3
CC1(C)CC[C@]2(CCC(=O)N3CCC(O)CC3)CC[C@]3(C)[C@H](C(=O)C=C4[C@@]5(C)C=C(C#N)C(=O)C(C)(C)[C@@H]5CC[C@]43C)[C@@H]2C1 [TX64048]	1.2
CC1(C)CC[C@]2(CCC(=O)N3CCC(F)(F)C3)CC[C@]3(C)[C@H](C(=O)C=C4[C@@]5(C)C=C(C#N)C(=O)C(C)(C)[C@@H]5CC[C@]43C)[C@@H]2C1 [TX64049]	2
COC(=O)CNC(=O)CC[C@]12CCC(C)(C)C[C@H]1[C@H]1C(=O)C=C3[C@@]4(C)C=C(C#N)C(=O)C(C)(C)[C@@H]4CC[C@@]3(C)[C@]1(C)CC2 [TX64052]	2
CC1(C)CC[C@]2(CCC(=O)OC3CCN(C(=O)OC(C)(C)C)CC3)CC[C@]3(C)[C@H](C(=O)C=C4[C@@]5(C)C=C(C#N)C(=O)C(C)(C)[C@@H]5CC[C@]43C)[C@@H]2C1 [TX64053]	37
CC1(C)CC[C@]2(CCC(=O)NCC(=O)O)CC[C@]3(C)[C@H](C(=O)C=C4[C@@]5(C)C=C(C#N)C(=O)C(C)(C)[C@@H]5CC[C@]43C)[C@@H]2C1 [TX64054]	97
CC1(C)CC[C@]2(CCC(=O)OC3CCNCC3)CC[C@]3(C)[C@H](C(=O)C=C4[C@@]5(C)C=C(C#N)C(=O)C(C)(C)[C@@H]5CC[C@]43C)[C@@H]2C1 [TX64055]	1.7
CONC(=O)CC[C@]12CCC(C)(C)C[C@H]1[C@H]1C(=O)C=C3[C@@]4(C)C=C(C#N)C(=O)C(C)(C)[C@@H]4CC[C@@]3(C)[C@]1(C)CC2 [TX64056]	0.3
CC1(C)CC[C@]2(CCC(=O)NC3CCCCC3)CC[C@]3(C)[C@H](C(=O)C=C4[C@@]5(C)C=C(C#N)C(=O)C(C)(C)[C@@H]5CC[C@]43C)[C@@H]2C1 [TX64057]	0.8
CC1(C)CC[C@]2(CCC(=O)OC3CCCCC3)CC[C@]3(C)[C@H](C(=O)C=C4[C@@]5(C)C=C(C#N)C(=O)C(C)(C)[C@@H]5CC[C@]43C)[C@@H]2C1 [TX64058]	29
CC1(C)CC[C@]2(CCC(=O)Nc3ccccc3)CC[C@]3(C)[C@H](C(=O)C=C4[C@@]5(C)C=C(C#N)C(=O)C(C)(C)[C@@H]5CC[C@]43C)[C@@H]2C1 [TX64059]	1.4
CN(C)C(=O)CC[C@]12CCC(C)(C)C[C@H]1[C@H]1C(=O)C=C3[C@@]4(C)C=C(C#N)C(=O)C(C)(C)[C@@H]4CC[C@@]3(C)[C@]1(C)CC2 [TX64060]	0.4
CC(C)NC(=O)CC[C@]12CCC(C)(C)C[C@H]1[C@H]1C(=O)C=C3[C@@]4(C)C=C(C#N)C(=O)C(C)(C)[C@@H]4CC[C@@]3(C)[C@]1(C)CC2 [TX64064]	0.4
CC1(C)CC[C@]2(CCC(=O)NC(C)(C)C)CC[C@]3(C)[C@H](C(=O)C=C4[C@@]5(C)C=C(C#N)C(=O)C(C)(C)[C@@H]5CC[C@]43C)[C@@H]2C1 [TX64065]	0.6
CC1(C)CC[C@]2(CCC(=O)OCc3ccccc3)CC[C@]3(C)[C@H](C(=O)C=C4[C@@]5(C)C=C(C#N)C(=O)C(C)(C)[C@@H]5CC[C@]43C)[C@@H]2C1 [TX64066]	20
CC1(C)CC[C@]2(CCC(=O)OC(C)(C)C)CC[C@]3(C)[C@H](C(=O)C=C4[C@@]5(C)C=C(C#N)C(=O)C(C)(C)[C@@H]5CC[C@]43C)[C@@H]2C1 [TX64067]	14
CC1(C)CC[C@]2(CCC(=O)Nc3ccccn3)CC[C@]3(C)[C@H](C(=O)C=C4[C@@]5(C)C=C(C#N)C(=O)C(C)(C)[C@@H]5CC[C@]43C)[C@@H]2C1 [TX64068]	1.1
CC1(C)CC[C@]2(CCC(N)=O)CC[C@]3(C)[C@H](C(=O)C=C4[C@@]5(C)C=C(C#N)C(=O)C(C)(C)[C@@H]5CC[C@]43C)[C@@H]2C1 [TX64074]	0.3
CC1(C)CC[C@]2(CCC(=O)N3CCN(C(=O)OC(C)(C)C)CC3)CC[C@]3(C)[C@H](C(=O)C=C4[C@@]5(C)C=C(C#N)C(=O)C(C)(C)[C@@H]5CC[C@]43C)[C@@H]2C1 [TX64124]	3.4
CC1(C)CC[C@]2(CCC(=O)N3CCNCC3)CC[C@]3(C)[C@H](C(=O)C=C4[C@@]5(C)C=C(C#N)C(=O)C(C)(C)[C@@H]5CC[C@]43C)[C@@H]2C1 [TX64135]	1.5
